Results reported in patent publication US20080038809A1, “ISOLATED LECTIN POLYPEPTIDES CONSISTING OF TRUNCATED […] UDP-GalNAc:POLYPEPTIDE N- ACETYLGALACTOSAMINYLTRANSFERASES” (GLYCOZYM APS, priority 2002, published 2008).
“Also recorded” adds a separate entry of the source.

Columns and labels:
[1] = system: MUC5AC in HT-29 MTX cells; assay: MUC5AC secretion, SDS-PAGE western blot of media with LUM5-1 (FIG. 17); format: cell-based, human; details: 5 mM, continuous culture, media at 14 days
Method: FIG. 17 illustrates SDS-PAGE Western analysis of MUC5AC secretion from HT29MTX cells using polyclonal anti-MUC5AC antibody LUM5-1. In order to evaluate GalNAcβ-benzyl as an inhibitor of mucin glycosylation and secretion we used the HT-29 metotrexate (MTX) cultured colon carcinoma cells of mucin secreting phenotype. HT-29 MTX cells have a goblet cell like phenotype with constitutive production of MUC5AC. Cells were continuously grown up to 21 days in the presence of 5 mM GalNAcα-benzyl, 5 mM GalNAcβ-benzyl, 5 mM GlcNAcα-benzyl and without inhibitor. […] In striking contrast, MUC5AC was not detected in the media from cells treated with GalNAcα-benzyl (Lane 3) or GalNAcβ-benzyl (Lane 4). Results shown are from media collected at 14 days.
In order to evaluate GalNAcβ-benzyl as an inhibitor of mucin glycosylation and secretion we used the cultured colon carcinoma cells of mucin secreting phenotypes: HT-29 metotrexate (MTX) cells selected from the HT-29 cell line by culture in the presence of MTX (kind gift from G. Huet, France). The HT-29 MTX cells were selected to yield a goblet cell like phenotype with constitutive production of MUC5AC. In order to ensure proper goblet cell differentiation the HT29MTX cell line were continuously grown up to 21 days in the presence of 5 mM GalNAcα-benzyl, 5 mM GalNAcβ-benzyl, 5 mM GlcNAcα-benzyl and without inhibitor using culture conditions as described in Hennebicq-Reig et al. (Permanent exposure of mucin-secreting HT-29 cells to benzyl-N-acetyl-alpha-D-galactosaminide induces abnormal O-glycosylation of mucins and inhibits constitutive and stimulated MUC5AC secretion. Biochem J. 1998; 334:283-95). […] Furthermore the viscosity of the media from cells with and without inhibitor was evaluated using viscosity micro-measurement.

[2] = system: GalNAc-T2 and -T4 secreted soluble enzymes as well as lectin domains; assay: Inhibition of GalNAc-transferase lectin binding to GalNAc-glycopeptides, statements on GalNAc-T2 and -T4 together; parameters: species or system human; details: enzymes and isolated lectins
Method: Direct binding ELISA assay was developed as follows: Polystyrene microtiter plates (Maxisorb, Nunc, Denmark) were coated with peptides or enzymatically glycosylated glycopeptides in PBS overnight at 4° C. Plates were washed and blocked with 0.1% Tween20 and 0.2% BSA in PBS for 1 h at room temperature, followed by incubation with biotinylated proteins in PBS with 0.05% Tween20 for 2 h at room temperature. After four washes with PBS, plates were incubated with 1:2,000 dilution streptavidin-HRP (Sigma) in PBS for 30 min at room temperature and washed four times with PBS. Development was performed with 0.5 mg/ml o-phenylenediamine and 0.02% H2O2 at room temperature for 15 min, and reaction stopped by adding 100 μl/well of 0.5 N H2SO4. Competitive inhibition assays were done at end-point titers of GalNAc-transferase proteins with one hour preincubations with inhibitor.
Lectins and antibodies to carbohydrates usually recognize the anomeric configuration of the sugar structures they bind.
Inhibition experiments were used to further define the binding specificity of GalNAc-T2 and -T4 secreted soluble enzymes as well as lectin domains compared to Helix Pomatia lectin (Table IV).

[3] = system: MUC1 secreted by wild type CHO/MUC1sol-cloneC4; assay: Secreted MUC1 in medium, western blot; format: cell-based, Chinese Hamster; details: 1-2 mM, compared to control treated or non-treated cells
Source text: Because GalNAcα-benzyl exerts separate effects on O-glycan processing and mucin expression, the use of the novel selective inhibitor of mucin expression, GalNAcβ-benzyl, allow analysis of mucin expression and secretion in different cell line models. Examples of human cell lines (available from ATCC, USA) expressing and secreting mucins are without limitations LS174T, HT29, Colo205, CALU, MCF7, T47D, NCI-H292, and A549. Most human adenocarcinoma cell lines express and secret mucins and analysis with antibodies to detect protein expression or probes to detect mRNA can reveal the types and quantities of mucins. […] This and other cell lines can be used to treat with 2 mM GalNAcβ-benzyl. In this Example we used wild type CHO/MUC1sol-cloneC4 and western blot analysis of medium of cells treated with 1-2 mM GalNAcα-benzyl, GalNAcβ-benzyl, or the control GlcNAcα-benzyl. […] The inhibitory effect on mucin secretion can be quantified by a number of assays known to the skilled in the art including western blot, ELISA, gelfiltration, immunocapture, and other assays.

[4] = system: cell surface expression of MUC1 in CHO1d1D/MUC1F-clone2 cells; assay: Cell surface expression of MUC1 by immunofluorescence; format: cell-based, Chinese hamster (CHO 1d1D cells); human MUC1; details: 1 mM, cells grown in GalNAc
Method: FIGS. 11A-D are a series of photomicrographs (left to right from top to bottom of) anti-MUC1 antibody immunofluorescence staining of CHO 1d1D cells stably transfected with a full coding cell surface MUC1 (CHO1d1D/MUC1F-clone2). Cell grown in the presence of GalNAc were treated with the O-glycosylation inhibitor GalNAcα-benzyl or control GlcNAcα-benzyl. Cells were grown in plates and stained without permeabilization as described in Example 4.
We therefore investigated the effect of treatment with GalNAcα-benzyl of CHO1d1D/MUC1F-clone2 cells grown in the presence of GalNAc. CHO1d1D/MUC1F-clone2 cells were seeded in 6 well plates at a density of 0.2×10^6 per well and were grown for 6 hours in Hams F12 medium with serum until approximately 30% subconfluent. […] After 18 hours, the medium was replaced with fresh Optimem containing the sugars and benzyl derivatives as above and grown for 12-48 hours. Initially we analyzed surface expression of MUC1 by immunocytology. Cells were washed once in PBS-CMF (phosphate buffered saline Calcium and Magnesium free) after carefully removing the medium from the wells and subsequently fixed in 2 ml 3% paraformaldehyde at 25° C. for 20 min followed by three washes with PBS-CMF 3 times. […]

Row | inhibition of GalNAc-T2 and -T4 lectin mediated binding, in words [2] | SMILES | MUC5AC in media (secretion) ([1]; listed as GalNAcα-benzyl) | secreted MUC1 in medium [3] | inhibition of cell surface expression of MUC1 [4] | MUC5AC in media (secretion) [1]
1 | equal inhibition | CC(=O)N[C@H]1[C@@H](OCc2ccccc2)O[C@H](CO)[C@H](O)[C@@H]1O [BzlαGalNAc, benzyl-N-acetyl-alpha-D-galactosaminide] | diminished secretion; also recorded: not detected | inhibition |  | 
2 |  | CC(=O)N[C@H]1[C@@H](OCc2ccccc2)O[C@H](CO)[C@H](O)[C@@H]1O [GalNAcα-benzyl, benzyl-N-acetyl-alpha-D-galactosaminide] |  |  | strong inhibition of cell surface expression of MUC1 | 
3 | equal inhibition | CC(=O)N[C@H]1[C@H](OCc2ccccc2)O[C@H](CO)[C@H](O)[C@@H]1O [GalNAcβ-benzyl] |  | inhibition |  | diminished secretion; also recorded: not detected
4 |  | CC(=O)N[C@H]1[C@@H](OCc2ccccc2)O[C@H](CO)[C@@H](O)[C@@H]1O [GlcNAcα-benzyl] |  |  | no inhibition | 
